Among the data in ChEMBL document CHEMBL3396980, “Total synthesis of Herbarin A and B, determination of their antioxidant properties and toxicity in zebrafish embryo model” (Bioorg Med Chem Lett, 2015) are Activity values, retold here.

Molecules are shown by their SMILES.

Data set [1] can be described thus: Antioxidant activity assessed as ferric ion reducing activity using fe3+-TPTZ assessed as fe2+-TPTZ formation at 0.1 to 1 mM by spectrophotometry based FRAP assay. It counts as physicochemical. As to conditions: 1000 µM; call rule not given here.
For data set [2], the species on record is Danio rerio. Kind of data set: Toxicity in wild type zebrafish embryo in E3 medium treated for 2 days observed on 24 hrs of post fertilization by microscopy. It counts as organism-based. As to conditions: in vivo, 48 h.
For data set [3], the species on record is Danio rerio. Kind of data set: Toxicity in wild type zebrafish embryo in E3 medium assessed as teratogenicity treated at 9 to 190 nM for 2 days observed on 24 hrs of post fertilization by microscopy. It counts as organism-based. As to conditions: in vivo, 48 h, 0.19 µM.

For the compound `COc1cc(=O)oc(/C=C/C=C/C(=O)O)c1C`, the Activity result in data set [1] is given as “Active”; in data set [2] it was “Non-toxic”.

Take `COc1cc(=O)oc(/C=C/C(=O)O)c1C`: the Activity in data set [3] is 100%; in data set [1], “Active”.
